Measured values: the NIST ThermoML archive (doi:10.1021/acs.jced.8b00554)
± gives the expanded uncertainty stated by the source.

Test: xn = mol fraction of the nth substance listed
Details: Liquid, Vibrating tube method

CCCCCCCCCC [decane] + CCCO
mass density [kg/m3]
Details	313.15 K	323.15 K
100 kPa, x2 = 0.1391	716.51 ± 4.6	707.51 ± 4.5
100 kPa, x2 = 0.1907	717.9 ± 4.6	709.03 ± 4.5
100 kPa, x2 = 0.3001	721.57 ± 4.6	712.69 ± 4.6
100 kPa, x2 = 0.4326	726.91 ± 4.7	717.73 ± 4.6
100 kPa, x2 = 0.6863	743.48 ± 4.8	734.39 ± 4.7
100 kPa, x2 = 0.8711	764.1 ± 4.9	755.13 ± 4.8
1000 kPa, x2 = 0.1907	–	709.9 ± 4.5
1000 kPa, x2 = 0.3001	723.23 ± 4.6	–
1000 kPa, x2 = 0.4326	728.22 ± 4.7	–
1000 kPa, x2 = 0.6863	–	735.11 ± 4.7
1010 kPa, x2 = 0.1391	–	708.44 ± 4.5
1010 kPa, x2 = 0.1907	718.96 ± 4.6	–
1010 kPa, x2 = 0.3001	–	713.84 ± 4.6
1010 kPa, x2 = 0.4326	–	718.54 ± 4.6
1010 kPa, x2 = 0.6863	744.97 ± 4.8	–
1010 kPa, x2 = 0.8711	765.33 ± 4.9	–
1020 kPa, x2 = 0.1391	717.29 ± 4.6	–
1020 kPa, x2 = 0.8711	–	755.79 ± 4.8
2000 kPa, x2 = 0.1391	718.2 ± 4.6	–
2000 kPa, x2 = 0.1907	719.85 ± 4.6	–
2000 kPa, x2 = 0.4326	–	719.49 ± 4.6
2000 kPa, x2 = 0.8711	766.21 ± 4.9	–
2010 kPa, x2 = 0.1391	–	709.4 ± 4.5
2010 kPa, x2 = 0.1907	–	710.86 ± 4.5
2010 kPa, x2 = 0.3001	724.13 ± 4.6	714.8 ± 4.6
2010 kPa, x2 = 0.4326	729.1 ± 4.7	–
2010 kPa, x2 = 0.6863	745.85 ± 4.8	–
2020 kPa, x2 = 0.6863	–	736.08 ± 4.7
2020 kPa, x2 = 0.8711	–	756.71 ± 4.8
3000 kPa, x2 = 0.1391	719.08 ± 4.6	–
3000 kPa, x2 = 0.4326	730 ± 4.7	–
3000 kPa, x2 = 0.8711	–	757.64 ± 4.8
3010 kPa, x2 = 0.1391	–	710.34 ± 4.5
3010 kPa, x2 = 0.1907	720.73 ± 4.6	711.79 ± 4.6
3010 kPa, x2 = 0.4326	–	720.43 ± 4.6
3010 kPa, x2 = 0.6863	746.75 ± 4.8	737.03 ± 4.7
3020 kPa, x2 = 0.3001	725.02 ± 4.6	715.74 ± 4.6
3020 kPa, x2 = 0.8711	767.09 ± 4.9	–
4000 kPa, x2 = 0.3001	–	716.68 ± 4.6
4010 kPa, x2 = 0.1391	719.94 ± 4.6	–
4010 kPa, x2 = 0.1907	721.6 ± 4.6	–
4010 kPa, x2 = 0.3001	725.89 ± 4.7	–
4010 kPa, x2 = 0.4326	–	721.39 ± 4.6
4010 kPa, x2 = 0.6863	747.62 ± 4.8	737.97 ± 4.7
4010 kPa, x2 = 0.8711	767.96 ± 4.9	–
4020 kPa, x2 = 0.1391	–	711.27 ± 4.6
4020 kPa, x2 = 0.1907	–	712.75 ± 4.6
4020 kPa, x2 = 0.4326	730.9 ± 4.7	–
4020 kPa, x2 = 0.8711	–	758.56 ± 4.9
5000 kPa, x2 = 0.1391	–	712.19 ± 4.6
5000 kPa, x2 = 0.3001	726.76 ± 4.7	717.61 ± 4.6
5000 kPa, x2 = 0.4326	–	722.33 ± 4.6
5000 kPa, x2 = 0.8711	–	759.48 ± 4.9
5010 kPa, x2 = 0.1391	720.8 ± 4.6	–
5010 kPa, x2 = 0.1907	722.46 ± 4.6	–
5020 kPa, x2 = 0.1907	–	713.66 ± 4.6
5020 kPa, x2 = 0.4326	731.76 ± 4.7	–
5020 kPa, x2 = 0.6863	748.51 ± 4.8	738.91 ± 4.7
5020 kPa, x2 = 0.8711	768.83 ± 4.9	–
6000 kPa, x2 = 0.1391	721.67 ± 4.6	713.11 ± 4.6
6000 kPa, x2 = 0.4326	732.64 ± 4.7	–
6000 kPa, x2 = 0.6863	749.38 ± 4.8	–
6010 kPa, x2 = 0.1907	723.31 ± 4.6	714.57 ± 4.6
6010 kPa, x2 = 0.3001	–	718.54 ± 4.6
6010 kPa, x2 = 0.4326	–	723.28 ± 4.6
6010 kPa, x2 = 0.6863	–	739.85 ± 4.7
6010 kPa, x2 = 0.8711	769.69 ± 4.9	760.42 ± 4.9
6020 kPa, x2 = 0.3001	727.63 ± 4.7	–
7000 kPa, x2 = 0.1907	724.18 ± 4.6	–
7000 kPa, x2 = 0.4326	–	724.2 ± 4.6
7010 kPa, x2 = 0.1391	722.52 ± 4.6	–
7010 kPa, x2 = 0.1907	–	715.47 ± 4.6
7010 kPa, x2 = 0.3001	–	719.46 ± 4.6
7010 kPa, x2 = 0.6863	750.25 ± 4.8	–
7010 kPa, x2 = 0.8711	–	761.33 ± 4.9
7020 kPa, x2 = 0.1391	–	714.02 ± 4.6
7020 kPa, x2 = 0.3001	728.48 ± 4.7	–
7020 kPa, x2 = 0.4326	733.49 ± 4.7	–
7020 kPa, x2 = 0.6863	–	740.78 ± 4.7
7020 kPa, x2 = 0.8711	770.55 ± 4.9	–
8000 kPa, x2 = 0.1907	–	716.39 ± 4.6
8000 kPa, x2 = 0.3001	729.32 ± 4.7	–
8000 kPa, x2 = 0.6863	751.12 ± 4.8	–
8010 kPa, x2 = 0.1391	723.35 ± 4.6	714.92 ± 4.6
8010 kPa, x2 = 0.1907	725.03 ± 4.6	–
8010 kPa, x2 = 0.4326	734.37 ± 4.7	725.12 ± 4.7
8010 kPa, x2 = 0.8711	771.39 ± 4.9	762.24 ± 4.9
8020 kPa, x2 = 0.3001	–	720.36 ± 4.6
8020 kPa, x2 = 0.6863	–	741.71 ± 4.8
9000 kPa, x2 = 0.1391	–	715.8 ± 4.6
9000 kPa, x2 = 0.1907	–	717.29 ± 4.6
9000 kPa, x2 = 0.4326	–	726.05 ± 4.7
9000 kPa, x2 = 0.6863	–	742.63 ± 4.8
9000 kPa, x2 = 0.8711	–	763.15 ± 4.9
9010 kPa, x2 = 0.1391	724.19 ± 4.6	–
9010 kPa, x2 = 0.1907	725.85 ± 4.7	–
9010 kPa, x2 = 0.3001	730.17 ± 4.7	721.28 ± 4.6
9010 kPa, x2 = 0.6863	751.97 ± 4.8	–
9020 kPa, x2 = 0.4326	735.2 ± 4.7	–
9020 kPa, x2 = 0.8711	772.23 ± 5	–
10000 kPa, x2 = 0.1391	–	716.7 ± 4.6
10000 kPa, x2 = 0.1907	–	718.16 ± 4.6
10000 kPa, x2 = 0.3001	–	722.18 ± 4.6
10000 kPa, x2 = 0.6863	752.81 ± 4.8	–
10010 kPa, x2 = 0.1391	724.99 ± 4.7	–
10010 kPa, x2 = 0.1907	726.66 ± 4.7	–
10010 kPa, x2 = 0.3001	731 ± 4.7	–
10010 kPa, x2 = 0.4326	736.06 ± 4.7	–
10020 kPa, x2 = 0.8711	773.07 ± 5	–
11000 kPa, x2 = 0.1907	727.49 ± 4.7	–
11000 kPa, x2 = 0.3001	731.82 ± 4.7	–
11000 kPa, x2 = 0.6863	753.64 ± 4.8	–
11010 kPa, x2 = 0.1391	725.82 ± 4.7	–
11010 kPa, x2 = 0.8711	773.9 ± 5	–
11020 kPa, x2 = 0.4326	736.89 ± 4.7	–
12000 kPa, x2 = 0.8711	774.72 ± 5	–
12010 kPa, x2 = 0.1907	728.3 ± 4.7	–
12010 kPa, x2 = 0.3001	732.64 ± 4.7	–
12010 kPa, x2 = 0.4326	737.71 ± 4.7	–
12010 kPa, x2 = 0.6863	754.47 ± 4.8	–
12020 kPa, x2 = 0.1391	726.61 ± 4.7	–
13000 kPa, x2 = 0.1391	727.41 ± 4.7	–
13000 kPa, x2 = 0.1907	729.09 ± 4.7	–
13000 kPa, x2 = 0.8711	775.51 ± 5	–
13010 kPa, x2 = 0.3001	733.44 ± 4.7	–
13010 kPa, x2 = 0.4326	738.53 ± 4.7	–
13010 kPa, x2 = 0.6863	755.3 ± 4.8	–
14000 kPa, x2 = 0.3001	734.23 ± 4.7	–
14010 kPa, x2 = 0.1391	728.19 ± 4.7	–
14010 kPa, x2 = 0.4326	739.32 ± 4.7	–
14010 kPa, x2 = 0.6863	756.1 ± 4.8	–
14020 kPa, x2 = 0.1907	729.89 ± 4.7	–
14020 kPa, x2 = 0.8711	776.33 ± 5	–
15000 kPa, x2 = 0.6863	756.89 ± 4.8	–
15010 kPa, x2 = 0.1391	728.97 ± 4.7	–
15010 kPa, x2 = 0.1907	730.66 ± 4.7	–
15010 kPa, x2 = 0.3001	735.01 ± 4.7	–
15010 kPa, x2 = 0.4326	740.1 ± 4.7	–
15020 kPa, x2 = 0.8711	777.12 ± 5	–
16000 kPa, x2 = 0.4326	740.87 ± 4.8	–
16010 kPa, x2 = 0.1391	729.71 ± 4.7	–
16010 kPa, x2 = 0.6863	757.68 ± 4.9	–
16010 kPa, x2 = 0.8711	777.89 ± 5	–
16020 kPa, x2 = 0.1907	731.41 ± 4.7	–
16020 kPa, x2 = 0.3001	735.77 ± 4.7	–
17000 kPa, x2 = 0.6863	758.44 ± 4.9	–
17010 kPa, x2 = 0.1391	730.47 ± 4.7	–
17020 kPa, x2 = 0.1907	732.18 ± 4.7	–
17020 kPa, x2 = 0.3001	736.53 ± 4.7	–
17020 kPa, x2 = 0.4326	741.63 ± 4.8	–
17020 kPa, x2 = 0.8711	778.66 ± 5	–
18000 kPa, x2 = 0.1391	731.21 ± 4.7	–
18010 kPa, x2 = 0.3001	737.27 ± 4.7	–
18010 kPa, x2 = 0.4326	742.38 ± 4.8	–
18010 kPa, x2 = 0.6863	759.2 ± 4.9	–
18010 kPa, x2 = 0.8711	779.44 ± 5	–
18020 kPa, x2 = 0.1907	732.92 ± 4.7	–
19000 kPa, x2 = 0.1391	731.93 ± 4.7	–
19000 kPa, x2 = 0.1907	733.63 ± 4.7	–
19000 kPa, x2 = 0.3001	738.01 ± 4.7	–
19000 kPa, x2 = 0.6863	759.95 ± 4.9	–
19020 kPa, x2 = 0.4326	743.13 ± 4.8	–
19020 kPa, x2 = 0.8711	780.17 ± 5	–
20000 kPa, x2 = 0.3001	738.71 ± 4.7	–
20000 kPa, x2 = 0.4326	743.85 ± 4.8	–
20010 kPa, x2 = 0.6863	760.69 ± 4.9	–
20020 kPa, x2 = 0.1391	732.61 ± 4.7	–
20020 kPa, x2 = 0.1907	734.34 ± 4.7	–
20020 kPa, x2 = 0.8711	780.91 ± 5	–
